Read-outs that look alike come from different tables or passages of the source.
Legend:
[1] = biological target: GT1a D168A NS3/4A protease; assay type: biochemical, Hepatitis C virus; conditions: fold change in Ki, D168A relative to WT
Outline: (§1)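 NS3/4A protease (2 nM; wild-type GT1a or D168A) pre-incubated 1 h at room temperature with increasing inhibitor in 50 mM Tris pH 7.5, 5% glycerol, 10 mM DTT, 0.6 mM LDAO, 4% DMSO. Ki from three independent data sets per construct; ΔG=RTlnKi.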

[2] = biological target: T1, GT1a D168A NS3/4A protease (UniProt P27958, D1194A, species not given); assay type: biochemical, Hepatitis C virus
T1 construct: rows headed: Ki (nM) D168A; Ki D168A; other: D168A variant
Outline: as §1

[3] = biological target: T2, wild-type GT1a NS3/4A protease (UniProt P27958); assay type: biochemical, Hepatitis C virus
T2 construct: Ki WT; other: wild-type HCV NS3/4A protease
Outline: as §1

[4] = test system: wild-type HCV replicon in Huh7 cells; assay: Cell-based drug susceptibility (replicon) assay, wild-type; conditions: Hepatitis C virus, Huh-7, Table 9; read-out: Replicon EC50 (nM) WT
Outline: (§2)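 Huh7, electroporated w/ Con1 (gt1b) luc replicon RNA carrying H77 (gt1a) NS3; mutants by site-directed mutagenesis. Increasing PI concentrations; luciferase (RLU) read 96 h post-electroporation.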

[5] = test system: HCV replicon D168V variant in Huh7 cells; assay: microbe, parasite or virus in culture; assay type: cell-based, Hepatitis C virus; conditions: for Replicon EC50 (Fold change) D168V: relative to WT
Outline: as §2

[6] = biological target: GT1a R155K NS3/4A protease (UniProt P27958, R1181K, species not given); assay type: biochemical, Hepatitis C virus
Description: (§3) For each assay, 2 nM of NS3/4A protease (GT1a, R155K and D168A) was pre-incubated at room temperature for 1 h with increasing concentration of inhibitors in assay buffer (50 mM Tris, 5% glycerol, 10 mM DTT, 0.6 mM LDAO, and 4% dimethyl sulfoxide, pH 7.5). Inhibition assays were performed in non-binding surface 96-well black half-area plates (Corning) in a reaction volume of 60 μL. […] Three independent data sets were collected for each inhibitor with each protease construct. […] Gibbs free energy of binding was calculated using the following equation: ΔG=RTlnKi

[7] = biological target: GT1a R155K NS3/4A protease; assay type: biochemical, Hepatitis C virus; conditions: fold change in Ki, R155K relative to WT
Description: as §3

[8] = test system: HCV replicon D168A variant in Huh7 cells; assay: microbe, parasite or virus in culture; assay type: cell-based, Hepatitis C virus; conditions: for EC50: Hepatitis C virus, Huh-7, read-out: Replicon EC50 (nM) D168A, Table 9; for Replicon EC50 (Fold change) D168A: Table 9, relative to WT
Outline: as §2

[9] = test system: HCV replicon A156T variant in Huh7 cells; assay: microbe, parasite or virus in culture; assay type: cell-based, Hepatitis C virus; conditions: for EC50: Hepatitis C virus, Huh-7, read-out: Replicon EC50 (nM) A156T, Table 9; for Replicon EC50 (Fold change) A156T: Table 9, relative to WT
Outline: as §2

[10] = test system: HCV replicon R155K variant in Huh7 cells; assay: microbe, parasite or virus in culture; assay type: cell-based, Hepatitis C virus; conditions: for EC50: Hepatitis C virus, Huh-7, read-out: Replicon EC50 (nM) R155K, Table 9; for Replicon EC50 (Fold change) R155K: Table 9, relative to WT
Outline: as §2

[11] = read-out: Ki (nM) D168A, Table 8, linear inhibitors
[12] = read-out: Ki D168A, D168A variant
[13] = read-out: Ki (nM) WT, Table 8, linear inhibitors
[14] = read-out: Ki WT, wild-type HCV NS3/4A protease
[15] = Hepatitis C virus, Huh-7, read-out: Replicon EC50 (nM) D168V, Table 9
[16] = read-out: Ki (nM) R155K, Table 8, linear inhibitors
[17] = read-out: Ki R155K, R155K variant
[18] = read-out: Replicon EC50 (nM) D168V, Table 9

| SMILES | Ki D168A (fold change) [1] | Ki [2, 11] | Ki [2, 12] | Ki [3, 13] | Ki [3, 14] | EC50 [4] | EC50 [5, 15] | Replicon EC50 (Fold change) D168V ([5]; Table 9) | Ki [6, 16] | Ki [6, 17] | Ki R155K (fold change) [7] | EC50 [8] | Replicon EC50 (Fold change) D168A [8] | EC50 [9] | Replicon EC50 (Fold change) A156T [9] | EC50 [10] | Replicon EC50 (Fold change) R155K [10] | EC50 [5, 18] |
| --- | --- | --- | --- | --- | --- | --- | --- | --- | --- | --- | --- | --- | --- | --- | --- | --- | --- | --- |
| C=C[C@@H]1C[C@]1(NC(=O)[C@@H]1C[C@@H](Oc2nc3cc(OC)ccc3nc2CC)CN1C(=O)[C@@H](NC(=O)OC(C)(C)C)C(C)(C)C)C(=O)NS(=O)(=O)C1CC1 [Compound 3, tert-Butyl ((S)-1-((2S,4R)-2-(((1R,2S)-1-((cyclopropylsulfonyl)carbamoyl)-2-vinylcyclopropyl)carbamoyl)-4-((3-ethyl-7-methoxyquinoxalin-2-yl)oxy)pyrrolidin-1-yl)-3,3-dimethyl-1-oxobutan-2-yl)carbamate] | 34 | 642 ± 101 nM | 642 ± 101 nM | 19 nM | 19 ± 2.7 nM | 24 nM | > 500 nM | (>21) fold | 17 ± 2.3 nM | 17 ± 2.3 nM | 0.9 | > 500 nM | (>21) fold | 73 nM | (3.0) fold | 50 nM | (2.1) fold | – |
| C=C[C@@H]1C[C@]1(NC(=O)[C@@H]1C[C@@H](Oc2nc3cc(OC)ccc3nc2Cl)CN1C(=O)[C@@H](NC(=O)OC(C)(C)C)C(C)(C)C)C(=O)NS(=O)(=O)C1CC1 [Compound 9d, tert-Butyl ((S)-1-((2S,4R)-4-((3-chloro-7-methoxyquinoxalin-2-yl)oxy)-2-(((1R,2S)-1-((cyclopropylsulfonyl)carbamoyl)-2-vinylcyclopropyl)carbamoyl)pyrrolidin-1-yl)-3,3-dimethyl-1-oxobutan-2-yl)carbamate] | 16 | 128 ± 16 nM | 128 ± 16 nM | 7.8 ± 1.1 nM | 7.8 ± 1.1 nM | 6.6 nM | 12 to 38 nM | (1.8) fold | 2.2 ± 0.4 nM | 2.2 ± 0.4 nM | 0.3 | – | (5.8) fold | 107 nM | (16) fold | 10 nM | (1.5) fold | 12 nM |
| C=C[C@@H]1C[C@]1(NC(=O)[C@@H]1C[C@@H](Oc2nc3cc(OC)ccc3nc2Cl)CN1C(=O)[C@@H](NC(=O)OC(C)(C)C)C(C)(C)C)C(=O)NS(=O)(=O)C1(C)CC1 [Compound 10d, tert-Butyl ((S)-1-((2S4R)-4-((3-chloro-7-methoxyquinoxalin-2-yl)oxy)-2-(((1R,2SD)-1-(((1-methylcyclopropyl)sulfonyl)carbamoyl)-1-vinylcyclopropyl)carbamoyl)pyrrolidin-1-yl)-3,3-dimethyl-1-oxobutan-2-yl)carbamate] | 31 | 119 ± 16 nM | 119 ± 16 nM | 6.1 ± 1.1 nM | 6.1 ± 1.1 nM | 6.3 nM | 12 to 38 nM | (1.9) fold | 3.8 ± 0.6 nM | 3.8 ± 0.6 nM | 0.7 | – | (4.8) fold | 100 nM | (16) fold | 10 nM | (1.6) fold | 12 nM |
| C=C[C@@H]1C[C@]1(NC(=O)[C@@H]1C[C@@H](Oc2nc3cc(OC)ccc3nc2C)CN1C(=O)[C@@H](NC(=O)OC1CCCC1)C(C)(C)C)C(=O)NS(=O)(=O)C1CC1 [Compound 11b, Cyclopentyl ((S)-1-((2S,4R)-2-(((1R,2S)-1-((cyclopropylsulfonyl)carbamoyl)-2-vinylcyclopropyl)carbamoyl)-4-((7-methoxy-3-methylquinoxalin-2-yl)oxy)pyrrolidin-1-yl)-3,3-dimethyl-1-oxobutan-2-yl)carbamate] | 16 | 144 ± 23 nM | 144 ± 23 nM | 9.2 ± 0.9 nM | 9.2 ± 0.9 nM | 10 nM | 150 nM | (15) fold | 9.6 ± 0.9 nM | 9.6 ± 0.9 nM | 1.0 | 101 nM | (10) fold | 164 nM | (16) fold | 48 nM | (4.8) fold | – |
| C=C[C@@H]1C[C@]1(NC(=O)[C@@H]1C[C@@H](Oc2nc3cc(OC)ccc3nc2Cl)CN1C(=O)[C@@H](NC(=O)OC1CCCC1)C(C)(C)C)C(=O)NS(=O)(=O)C1CC1 [Compound 11d, Cyclopentyl ((S)-1-((2S,4R)-4-((3-chloro-7-methoxyquinoxalin-2-yl)oxy)-2-(((1R,2S)-1-((cyclopropylsulfonyl)carbamoyl)-2-vinylcyclopropyl)carbamoyl)pyrrolidin-1-yl)-3,3-dimethyl-1-oxobutan-2-yl)carbamate] | 26 | 99 ± 10 nM | 99 ± 10 nM | 3.8 nM | 3.8 ± 0.6 nM | 7.4 nM | 54 nM | (7.3) fold | 4.1 ± 0.5 nM | 4.1 ± 0.5 nM | 1.1 | 50 nM | (6.8) fold | 292 nM | (40) fold | 40 nM | (5.4) fold | – |
| C=C[C@@H]1C[C@]1(NC(=O)[C@@H]1C[C@@H](Oc2nc3cc(OC)ccc3nc2CC)CN1C(=O)[C@@H](NC(=O)OC1CCCC1)C(C)(C)C)C(=O)NS(=O)(=O)C1(C)CC1 [Compound 12a, Cyclopentyl ((S)-1-((2S,4R)-4-((3-ethyl-7-methoxyquinoxalin-2-yl)oxy)-2-(((1R,2S)-1-(((1-methylcyclopropyl)sulfonyl)carbamoyl)-2-vinylcyclopropyl)carbamoyl)pyrrolidin-1-yl)-3,3-dimethyl-1-oxobutan-2-yl)carbamate] | 21 | 145 nM | 145 ± 14 nM | 6.9 nM | 6.9 ± 0.5 nM | – | – | – | 13 ± 2.7 nM | 13 ± 2.7 nM | 1.9 | – | – | – | – | – | – | – |
| C=C[C@@H]1C[C@]1(NC(=O)[C@@H]1C[C@@H](Oc2nc3cc(OC)ccc3nc2C(C)C)CN1C(=O)[C@@H](NC(=O)OC1CCCC1)C(C)(C)C)C(=O)NS(=O)(=O)C1(C)CC1 [Compound 12c, Cyclopentyl ((S)-1-((2S,4R)-4-((3-isopropyl-7-methoxyquinoxalin-2-yl)oxy)-2-(((1R,2S)-1-(((1-methylcyclopropyl)sulfonyl)carbamoyl)-2-vinylcyclopropyl)carbamoyl)pyrrolidin-1-yl)-3,3-dimethyl-1-oxobutan-2-yl)carbamate] | 48 | 1000 ± 80 nM | 1000 ± 80 nM | 21 ± 2.6 nM | 21 ± 2.6 nM | – | – | – | 43 ± 11 nM | 43 ± 11 nM | 2.0 | – | – | – | – | – | – | – |
| C=C[C@@H]1C[C@]1(NC(=O)[C@@H]1C[C@@H](Oc2nc3cc(OC)ccc3nc2C(F)(F)F)CN1C(=O)[C@@H](NC(=O)OC1CCCC1)C(C)(C)C)C(=O)NS(=O)(=O)C1(C)CC1 [Compound 12e, Cyclopentyl ((S)-1-((2S,4R)-4-((7-methoxy-3-(trifluoromethyl)quinoxalin-2-yl)oxy)-2-(((1R,2S)-1-(((1-methylcyclopropyl)sulfonyl)carbamoyl)-2-vinylcyclopropyl)carbamoyl)pyrrolidin-1-yl)-3,3-dimethyl-1-oxobutan-2-yl)carbamate] | 24 | 516 ± 61 nM | 516 ± 61 nM | 22 ± 3.4 nM | 22 ± 3.4 nM | – | – | – | 22 ± 6.9 nM | 22 ± 6.9 nM | 1.0 | – | – | – | – | – | – | – |

Source: patent US11472778B2, “Hepatitis C virus NS3/4A protease inhibitors” (priority 2017, dated 2022)
